Assay results reported in the supplement of paper PMC10307832.

Experiments:
Assay in all cases: relative viability (nuclei count vs DMSO), 5 days (fraction); higher = more cells survive
CUDC-101 + Bortezomib = compound: C#Cc1cccc(Nc2ncnc3cc(OC)c(OCCCCCCC(=O)NO)cc23)c1 [CUDC-101] + CC(C)C[C@H](NC(=O)[C@H](Cc1ccccc1)NC(=O)c1cnccn1)B(O)O [Bortezomib] (partner 0.002 µM)
How it was run: (§1)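 Lung cancer cell lines were pin-tool dosed in 1536-well plates on the day after seeding, with either a lone drug or a fixed anchor-drug dose plus five library-drug doses (not always all listed) in √10 steps. Nuclei were counted on 4× images after 5 days. Relative viability is the ratio of treated-well to vehicle-well nuclei counts, with each value a median of duplicate plates.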

NVP-TAE684 + Vorinostat = compound: COc1cc(N2CCC(N3CCN(C)CC3)CC2)ccc1Nc1ncc(Cl)c(Nc2ccccc2S(=O)(=O)C(C)C)n1 [NVP-TAE684] + O=C(CCCCCCC(=O)Nc1ccccc1)NO [Vorinostat] (partner 1 µM)
How it was run: as §1

[1] = compound: C1=CC=C2C(=C1)N=C(S2)C(C#N)C3=NC(=NC=C3)NCCC4=CN=CC=C4 + Cc1cc(Nc2cc(N3CCN(C)CC3)nc(Sc3ccc(NC(=O)C4CC4)cc3)n2)n[nH]1 [Tozasertib] (partner 0.1 µM)
How it was run: as §1

Vandetanib + Bortezomib = compound: COc1cc2/c(=N/c3ccc(Br)cc3F)nc[nH]c2cc1OCC1CCN(C)CC1 [Vandetanib] + CC(C)C[C@H](NC(=O)[C@H](Cc1ccccc1)NC(=O)c1cnccn1)B(O)O [Bortezomib] (partner 0.002 µM)
How it was run: as §1

Cell Line	relative viability (CUDC-101 + Bortezomib; first compound 0.01 µM)	relative viability (CUDC-101 + Bortezomib; first compound 0.03162 µM)	relative viability (CUDC-101 + Bortezomib; first compound 0.1 µM)	relative viability (CUDC-101 + Bortezomib; first compound 0.3162 µM)	relative viability (CUDC-101 + Bortezomib; first compound 1 µM)	relative viability (NVP-TAE684 + Vorinostat; first compound 0.2 µM)	relative viability (NVP-TAE684 + Vorinostat; first compound 0.6325 µM)	relative viability (NVP-TAE684 + Vorinostat; first compound 2 µM)	relative viability ([1]; first compound 0.005 µM)	relative viability ([1]; first compound 0.01581 µM)	relative viability ([1]; first compound 0.05 µM)	relative viability ([1]; first compound 0.1581 µM)	relative viability ([1]; first compound 0.5 µM)	relative viability (Vandetanib + Bortezomib; first compound 0.02 µM)	relative viability (Vandetanib + Bortezomib; first compound 0.06325 µM)	relative viability (Vandetanib + Bortezomib; first compound 0.2 µM)	relative viability (Vandetanib + Bortezomib; first compound 0.6325 µM)	relative viability (Vandetanib + Bortezomib; first compound 2 µM)
201T	1.08	1.06	1.09	1.11	1.08	1.02	1	0.831	0.788	0.964	0.941	0.929	0.837	1.03	1.08	1.13	1.03	1.06
A-427	0.936	1.01	0.925	0.985	0.878	0.908	0.848	0.738	0.203	0.181	0.222	0.227	0.203	0.887	0.99	1.04	1.02	0.961
ABC-1	0.243	0.247	0.269	0.24	0.18	–	1.01	0.527	0.202	0.196	0.169	0.152	0.184	0.304	0.3	0.287	0.406	0.244
BEN	0.882	0.759	0.779	0.75	0.543	0.547	0.524	0.419	0.261	0.49	0.457	0.638	0.435	0.875	0.714	0.83	0.919	0.861
CAL-12T	1.04	1.18	0.983	0.926	0.741	0.786	0.615	0.245	0.222	0.336	0.275	0.388	0.197	1.03	1.13	0.865	0.82	0.537
COR-L23	1.1	0.967	0.957	0.895	0.647	0.413	0.397	0.101	0.179	0.169	0.175	0.167	0.149	0.869	0.814	0.925	0.999	0.994
COR-L 105	0.833	0.963	0.639	0.611	0.176	–	0.78	0.509	0.324	0.338	0.315	0.339	0.351	0.827	0.661	0.851	0.474	0.388
Calu-6	0.955	1.07	1.05	1.06	0.815	–	–	–	–	–	–	–	–	1.15	0.933	1.09	0.959	0.941
ChaGo-K-1	1.22	1.31	0.821	1.03	0.963	0.786	0.691	0.518	–	0.209	0.223	0.251	0.255	1.11	0.985	0.593	0.887	0.567
EBC-1	0.658	0.421	0.409	0.245	0.153	–	–	–	–	–	–	–	–	0.635	0.559	0.647	0.577	0.505
EKVX	0.956	1.08	1.04	0.994	0.729	0.677	0.699	0.373	0.481	0.468	0.429	0.498	0.336	1.09	0.998	1.03	0.796	0.666
EMC-BAC-2	1.06	1.05	1.09	1.18	0.869	0.46	0.338	0.393	0.268	0.32	0.262	0.278	0.234	1.02	1.04	1.01	1.03	1.04
EPLC-272H	0.729	1	0.882	0.627	0.384	0.644	0.283	0.2	0.168	0.225	0.253	0.236	0.388	0.983	0.764	0.892	0.995	0.909
H3255	0.743	0.736	0.32	0.541	0.186	0.855	0.757	0.667	0.685	0.609	0.702	0.089	0.9	0.972	0.71	0.632	0.367	0.233
HARA	1.21	1.09	1.08	0.918	0.709	0.525	0.464	0.23	0.098	0.0872	0.114	0.0978	0.118	1.17	1.07	0.937	1.07	1.05
HCC-15	1.03	1.08	1.02	1	0.851	0.841	0.855	0.521	0.343	0.411	0.316	0.315	0.273	1.03	0.962	0.956	1.08	1.08
HCC-44	0.798	1.05	0.829	0.999	0.88	1.18	1.14	0.928	0.949	–	0.883	0.927	0.548	0.866	0.884	0.951	0.958	0.89
HCC-78	0.462	0.383	0.588	0.342	0.175	0.316	0.411	0.23	0.423	0.503	0.472	0.552	0.261	0.618	0.6	0.511	0.668	0.383
HCC-366	1.04	0.988	1.07	1.07	0.996	0.365	0.311	0.239	0.102	0.087	0.075	0.0798	0.0706	1.05	0.983	0.867	0.909	1.02
HCC-827	1.08	1.07	0.788	0.439	0.344	0.754	0.762	0.793	0.366	0.425	0.424	0.438	0.394	1.06	1.02	1.04	0.795	0.495
HOP-62	0.605	0.773	1.09	0.667	0.473	0.566	0.57	0.553	0.291	0.42	0.398	0.366	0.372	0.624	0.667	0.847	0.918	0.663
IA-LM	0.772	0.781	0.795	0.575	0.196	0.66	0.897	0.7	–	–	–	–	–	0.727	0.831	1.01	1.06	0.953
LC-2-ad	1.09	1.06	1.08	1.26	0.822	0.725	0.665	0.251	0.358	0.433	0.405	0.449	0.437	0.708	0.984	0.769	0.884	0.322

Cell Line	relative viability (CUDC-101 + Bortezomib; first compound 0.01 µM)	relative viability (CUDC-101 + Bortezomib; first compound 0.03162 µM)	relative viability (CUDC-101 + Bortezomib; first compound 0.1 µM)	relative viability (CUDC-101 + Bortezomib; first compound 0.3162 µM)	relative viability (CUDC-101 + Bortezomib; first compound 1 µM)	relative viability (NVP-TAE684 + Vorinostat; first compound 0.2 µM)	relative viability (NVP-TAE684 + Vorinostat; first compound 0.6325 µM)	relative viability (NVP-TAE684 + Vorinostat; first compound 2 µM)	relative viability ([1]; first compound 0.005 µM)	relative viability ([1]; first compound 0.01581 µM)	relative viability ([1]; first compound 0.05 µM)	relative viability ([1]; first compound 0.1581 µM)	relative viability ([1]; first compound 0.5 µM)	relative viability (Vandetanib + Bortezomib; first compound 0.02 µM)	relative viability (Vandetanib + Bortezomib; first compound 0.06325 µM)	relative viability (Vandetanib + Bortezomib; first compound 0.2 µM)	relative viability (Vandetanib + Bortezomib; first compound 0.6325 µM)	relative viability (Vandetanib + Bortezomib; first compound 2 µM)
LCLC-97TM1	0.629	0.308	0.527	0.546	0.28	0.548	0.589	0.157	0.294	0.214	0.273	0.256	0.281	0.827	0.641	0.771	0.566	0.558
LCLC-103H	1.17	1.03	1.01	1.14	0.68	0.725	0.759	0.653	0.49	0.492	0.525	0.558	0.478	1.09	0.966	1.05	1.05	0.924
LK-2	–	–	–	–	–	0.271	0.219	0.215	0.171	0.186	0.164	0.174	0.184	–	–	–	–	–
LOU-NH91	0.544	0.488	0.452	0.405	0.448	0.817	0.8	0.628	0.652	0.606	0.599	0.689	0.59	0.514	0.47	0.535	0.504	0.504
LU99A	1.36	1.14	1.04	0.998	0.635	0.51	0.465	0.357	0.258	0.247	0.224	0.278	0.214	1.14	1.22	1.11	1.07	1.07
LXF-289	1.02	0.987	0.972	0.953	0.704	0.671	0.676	0.723	0.173	0.197	0.184	0.232	0.237	0.999	0.895	0.932	1.04	0.986
NCI-H23	0.922	0.935	1.18	1.13	0.955	0.844	0.463	0.362	0.634	0.304	0.35	0.301	0.343	1	0.944	1.06	0.785	0.884
NCI-H358	–	–	–	–	–	0.697	0.608	0.0861	0.084	0.0964	0.0992	0.109	0.0865	–	–	–	–	–
NCI-H522	–	–	–	–	–	0.78	0.855	0.764	0.458	0.553	0.501	0.573	0.537	–	–	–	–	–
NCI-H1299	1.05	0.997	1.07	1.05	1.03	–	–	–	–	–	–	–	–	0.997	0.976	1.02	1.05	1.04
NCI-H1395	–	–	–	–	–	0.71	0.554	0.711	0.684	0.69	0.755	0.713	0.756	–	–	–	–	–
NCI-H1563	0.842	0.712	0.948	0.916	0.792	–	–	–	–	–	–	–	–	0.821	0.807	1.12	0.797	0.845
NCI-H1623	–	–	–	–	–	–	–	–	0.55	0.398	0.395	0.462	0.351	–	–	–	–	–
NCI-H1648	–	–	–	–	–	0.27	0.541	0.181	0.394	0.416	0.553	0.424	0.484	–	–	–	–	–
NCI-H1703	0.401	–	0.305	0.194	0.13	–	–	–	–	–	–	–	–	0.379	–	0.374	0.31	0.245
NCI-H1792	0.98	0.965	0.918	0.952	0.965	–	–	–	–	–	–	–	–	0.994	0.926	0.914	0.865	0.887
NCI-H1793	–	–	–	–	–	1.14	0.575	0.878	0.262	0.334	0.264	0.32	0.317	–	–	–	–	–
NCI-H1944	–	–	–	–	–	0.637	0.475	0.486	0.275	0.255	0.25	0.269	0.24	–	–	–	–	–
NCI-H2170	–	–	–	–	–	0.771	0.763	0.824	0.513	0.759	0.661	0.81	0.636	–	–	–	–	–
NCI-H2342	–	–	–	–	–	0.848	0.776	0.678	0.403	0.522	0.499	0.47	0.456	–	–	–	–	–
SK-MES-1	–	–	–	–	–	0.977	1.09	0.88	0.909	0.978	0.838	0.886	0.511	–	–	–	–	–
SW 900	–	–	–	–	–	0.686	0.46	0.687	0.452	0.489	0.5	0.489	0.362	–	–	–	–	–
